Counter-ions that a name gives are not always drawn. Like-named read-outs stand apart in the source and are kept apart here.
Columns and labels:
human CYP2D6 [1] = biological target: T1, human CYP2D6 (Homo sapiens, UniProt P10635); experiment: biochemical; conditions: for IC50: CYP2D6 IC50 (half-maximal inhibitory concentration)
human CYP1A2 [2] = biological target: T2, human CYP1A2 (Homo sapiens, UniProt P05177)
T2 sequence (P05177 1-516): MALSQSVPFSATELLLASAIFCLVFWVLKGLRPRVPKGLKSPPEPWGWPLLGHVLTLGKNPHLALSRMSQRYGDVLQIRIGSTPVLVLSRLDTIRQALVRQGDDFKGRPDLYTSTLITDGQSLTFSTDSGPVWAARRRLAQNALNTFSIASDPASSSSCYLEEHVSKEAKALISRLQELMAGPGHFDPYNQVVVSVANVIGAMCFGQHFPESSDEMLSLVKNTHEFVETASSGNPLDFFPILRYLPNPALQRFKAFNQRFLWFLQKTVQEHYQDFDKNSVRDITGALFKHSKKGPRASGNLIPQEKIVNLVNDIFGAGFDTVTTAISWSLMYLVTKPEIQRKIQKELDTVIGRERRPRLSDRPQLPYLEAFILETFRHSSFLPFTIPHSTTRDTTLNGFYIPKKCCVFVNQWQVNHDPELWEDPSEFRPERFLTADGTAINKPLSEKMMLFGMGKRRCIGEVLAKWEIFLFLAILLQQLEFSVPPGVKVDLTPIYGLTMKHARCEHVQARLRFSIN

human CYP2C19 [3] = biological target: T3, human CYP2C19 (Homo sapiens, UniProt P33261)
CYP3A4 = CYP3A4 (Homo sapiens, UniProt P08684)
[4] = biological target: Photinus pyralis (firefly) luciferase (Photinus pyralis, UniProt P08659); experiment: biochemical; assay type: biochemical
human CYP2C9 [5] = biological target: T4, human CYP2C9 (Homo sapiens, UniProt P11712)
human CYP1A2 [6] = biological target: T2, human CYP1A2; experiment: biochemical
human CYP2D6 [7] = biological target: T1, human CYP2D6
human CYP2C9 [8] = biological target: T4, human CYP2C9; experiment: biochemical; conditions: CYP2C9 IC50 (half-maximal inhibitory concentration)
human CYP2C19 [9] = biological target: T3, human CYP2C19; experiment: biochemical; conditions: CYP2C19 IC50 (half-maximal inhibitory concentration)
[10] = CYP1A2 IC50 (half-maximal inhibitory concentration)

Chain of Photinus pyralis (firefly) luciferase (P08659 whole entry): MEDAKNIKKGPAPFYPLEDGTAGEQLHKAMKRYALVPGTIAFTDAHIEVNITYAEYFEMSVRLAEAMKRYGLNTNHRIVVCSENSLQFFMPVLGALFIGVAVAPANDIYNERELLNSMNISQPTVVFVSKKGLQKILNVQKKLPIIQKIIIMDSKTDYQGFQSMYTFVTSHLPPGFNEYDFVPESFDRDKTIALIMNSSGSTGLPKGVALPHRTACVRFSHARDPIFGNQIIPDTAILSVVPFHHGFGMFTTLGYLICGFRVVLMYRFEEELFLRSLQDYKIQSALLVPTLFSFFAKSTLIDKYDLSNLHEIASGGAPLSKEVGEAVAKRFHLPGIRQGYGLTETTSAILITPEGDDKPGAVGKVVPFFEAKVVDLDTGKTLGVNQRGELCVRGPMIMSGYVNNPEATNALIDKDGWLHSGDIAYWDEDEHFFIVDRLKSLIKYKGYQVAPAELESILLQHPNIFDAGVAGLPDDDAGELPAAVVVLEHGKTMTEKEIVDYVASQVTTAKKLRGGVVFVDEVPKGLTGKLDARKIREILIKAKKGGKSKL
T4 sequence (P11712 whole entry): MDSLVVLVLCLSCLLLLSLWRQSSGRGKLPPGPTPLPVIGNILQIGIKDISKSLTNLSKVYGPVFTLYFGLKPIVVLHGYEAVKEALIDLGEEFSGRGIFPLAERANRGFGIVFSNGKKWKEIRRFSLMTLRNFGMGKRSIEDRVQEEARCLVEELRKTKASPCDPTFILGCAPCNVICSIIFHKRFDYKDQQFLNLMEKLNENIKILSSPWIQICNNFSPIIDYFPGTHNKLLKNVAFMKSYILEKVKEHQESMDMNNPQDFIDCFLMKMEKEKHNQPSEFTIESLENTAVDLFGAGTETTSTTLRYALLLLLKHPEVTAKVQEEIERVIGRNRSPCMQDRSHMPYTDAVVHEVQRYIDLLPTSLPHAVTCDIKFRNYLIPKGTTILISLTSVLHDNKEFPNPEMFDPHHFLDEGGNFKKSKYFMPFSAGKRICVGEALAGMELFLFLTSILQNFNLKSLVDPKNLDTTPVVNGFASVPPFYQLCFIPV
T1 sequence (P10635 whole entry): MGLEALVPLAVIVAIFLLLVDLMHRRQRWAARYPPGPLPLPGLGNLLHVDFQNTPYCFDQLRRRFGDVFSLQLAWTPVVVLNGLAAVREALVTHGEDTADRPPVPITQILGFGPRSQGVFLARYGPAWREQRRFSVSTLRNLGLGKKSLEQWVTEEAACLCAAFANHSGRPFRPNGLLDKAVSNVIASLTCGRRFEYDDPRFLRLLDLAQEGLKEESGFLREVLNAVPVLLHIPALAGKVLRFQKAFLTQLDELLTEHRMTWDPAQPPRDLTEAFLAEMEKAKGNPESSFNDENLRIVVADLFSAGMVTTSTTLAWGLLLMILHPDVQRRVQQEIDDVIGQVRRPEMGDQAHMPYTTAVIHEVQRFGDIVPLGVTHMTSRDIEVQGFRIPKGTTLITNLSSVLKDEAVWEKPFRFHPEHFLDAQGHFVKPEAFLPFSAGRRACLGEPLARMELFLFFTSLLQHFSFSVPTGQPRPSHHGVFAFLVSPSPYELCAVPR
T3 sequence (P33261 whole entry): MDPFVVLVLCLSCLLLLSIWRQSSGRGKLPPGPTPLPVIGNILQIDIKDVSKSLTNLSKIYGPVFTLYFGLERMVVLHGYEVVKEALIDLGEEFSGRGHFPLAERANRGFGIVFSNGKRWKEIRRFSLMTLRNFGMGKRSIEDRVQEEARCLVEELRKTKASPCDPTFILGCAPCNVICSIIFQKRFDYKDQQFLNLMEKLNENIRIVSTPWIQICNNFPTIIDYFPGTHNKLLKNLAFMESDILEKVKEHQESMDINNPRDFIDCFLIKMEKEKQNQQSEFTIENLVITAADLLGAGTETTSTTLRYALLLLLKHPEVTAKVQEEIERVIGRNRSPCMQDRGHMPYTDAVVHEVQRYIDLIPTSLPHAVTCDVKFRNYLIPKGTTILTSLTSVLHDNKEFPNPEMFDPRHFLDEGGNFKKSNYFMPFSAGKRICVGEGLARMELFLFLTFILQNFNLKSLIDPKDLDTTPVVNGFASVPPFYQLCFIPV
Chain of CYP3A4 (P08684 whole entry): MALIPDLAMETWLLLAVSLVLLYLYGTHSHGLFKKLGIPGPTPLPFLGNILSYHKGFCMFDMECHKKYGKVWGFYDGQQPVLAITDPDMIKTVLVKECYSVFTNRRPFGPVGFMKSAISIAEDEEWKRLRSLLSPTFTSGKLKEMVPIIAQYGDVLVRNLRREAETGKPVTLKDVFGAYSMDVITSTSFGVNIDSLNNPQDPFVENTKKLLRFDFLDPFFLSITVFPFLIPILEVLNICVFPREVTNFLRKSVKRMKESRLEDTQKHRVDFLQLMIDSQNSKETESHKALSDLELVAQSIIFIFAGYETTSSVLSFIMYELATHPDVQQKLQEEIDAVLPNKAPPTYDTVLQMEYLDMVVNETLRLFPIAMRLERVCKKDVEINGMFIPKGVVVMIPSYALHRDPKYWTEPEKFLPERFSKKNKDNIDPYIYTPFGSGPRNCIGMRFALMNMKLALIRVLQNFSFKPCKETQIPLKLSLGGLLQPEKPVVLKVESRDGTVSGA

OC(CN1CCC(Cc2ccc(F)cc2)CC1)c1ccc(Cl)cc1 (stereo not shown) [Eliprodil]
AC50 (human CYP2D6 [1]; CYP2D6 AC50 (half-maximal activity concentration)): 0.12 µM
IC50 (human CYP2D6 [1]): 0.12 µM

CCN(CC)CCN1C(=O)CN=C(c2ccccc2F)c2cc(Cl)ccc21 [Flurazepam]
IC50 (human CYP2D6 [1]): 15.6 µM

Brc1c(Br)c(Br)c(Br)c(Br)c1Br [Hexabromobenzene]
CYP1A2 Efficacy (in parenthesis) (human CYP1A2 [2]; human): 0.09 ± 0.01 (-45 ± 9) %
CYP2C19 IC50 (half-maximal inhibitory concentration) (human CYP2C19 [3]): Inactive
CYP3A4 IC50 (half-maximal inhibitory concentration) (CYP3A4): Inactive
Luciferase IC50 (half-maximal inhibitory concentration) [4]: Inactive
CYP2C9 IC50 (half-maximal inhibitory concentration) (human CYP2C9 [5]): Inactive
IC50 (human CYP1A2 [6]; [10]): 0.09 µM
CYP2D6 IC50 (half-maximal inhibitory concentration) (human CYP2D6 [7]): Inactive

c1ccc2c(c1)-c1ccc3ccc4cccc5cc-2c1c3c45 [Indeno(1,2,3-cd)pyrene]
IC50 (human CYP2C9 [8]): 5.5 µM
CYP3A4 IC50 (half-maximal inhibitory concentration) (CYP3A4): Inactive
IC50 (human CYP2C19 [9]): 15.5 µM
IC50 [4]: 12.9 µM
IC50 (human CYP1A2 [6]; [10]): 0.18 µM
CYP2D6 IC50 (half-maximal inhibitory concentration) (human CYP2D6 [7]): Inactive

c1ccc2nc(N3CCNCC3)ccc2c1 [Quipazine maleate]
CYP2C19 IC50 (human CYP2C19 [3]): Inactive
CYP3A4 IC50 (CYP3A4): Inactive
Luciferase IC50 [4]: Inactive
CYP2C9 IC50 (human CYP2C9 [5]): Inactive
IC50 (human CYP1A2 [6]; CYP1A2 IC50): 0.96 µM
CYP2D6 IC50 (human CYP2D6 [7]): Inactive

CCN(CC)C(=O)SCc1ccc(Cl)cc1 [Thiobencarb]
CYP1A2 Efficacy (in parenthesis) (human CYP1A2 [2]; human): 15.89 ± 0 (-91 ± 6) %
CYP2C19 Efficacy (in parenthesis) (human CYP2C19 [3]; human): 0.66 ± 0.12 (-124 ± 7) %
IC50 (human CYP2C9 [8]): 25.2 µM
CYP3A4 IC50 (half-maximal inhibitory concentration) (CYP3A4): Inactive
IC50 (human CYP2C19 [9]): 0.66 µM
IC50 [4]: 38.5 µM
CYP2C9 Efficacy (in parenthesis) (human CYP2C9 [5]; human): 25.18 ± 0 (-91 ± 2) %
IC50 (human CYP1A2 [6]; [10]): 15.9 µM
CYP2D6 IC50 (half-maximal inhibitory concentration) (human CYP2D6 [7]): Inactive

Cl.FC(F)(F)c1cccc(C2=CCN(CCc3ccc4ccccc4c3)CC2)c1 [Xaliproden hydrochloride]
CYP1A2 Efficacy (human CYP1A2 [2]): 28.62 ± 14.29 (-37 ± 3) %
IC50 (human CYP1A2 [2]): 28.6 µM
CYP2C19 IC50 (half-maximal inhibitory concentration) (human CYP2C19 [3]): Inactive
AC50 (CYP3A4): 19.8 µM
CYP3A4 IC50 (half-maximal inhibitory concentration) (CYP3A4): 19.77 ± 4.14 (120 ± 18) µM
Luciferase IC50 (half-maximal inhibitory concentration) [4]: Inactive
CYP2C9 Efficacy (human CYP2C9 [5]): 22.52 ± 6.28 (29 ± 5) %
CYP2C9 IC50 (half-maximal inhibitory concentration) (human CYP2C9 [5]): 22.52 ± 6.28 (29 ± 5) µM
CYP2D6 Efficacy (human CYP2D6 [7]): 0.28 ± 0.18 (-100 ± 3) %
IC50 (human CYP2D6 [7]): 0.28 µM

C[C@H]1CCC[C@H](O)CCCCCc2cc(O)cc(O)c2C(=O)O1 [Zearalanol]
IC50 (human CYP1A2 [2]): 33.4 µM
IC50 (human CYP2C19 [3]): 19.5 µM
IC50 (CYP3A4): 1 µM
Luciferase IC50 (half-maximal inhibitory concentration) [4]: Inactive
IC50 (human CYP2C9 [5]): 27.3 µM
IC50 (human CYP2D6 [7]): 57 µM

ClC(Cl)=C(c1ccc(Cl)cc1)c1ccc(Cl)cc1 [p,p'-DDE]
CYP1A2 Efficacy (in parenthesis) (human CYP1A2 [2]; human): 3.65 ± 1.85 (-100 ± 2) %
CYP2C19 Efficacy (in parenthesis) (human CYP2C19 [3]; human): 0.57 ± 0.14 (-135 ± 7) %
IC50 (human CYP2C9 [8]): 12.9 µM
CYP3A4 IC50 (half-maximal inhibitory concentration) (CYP3A4): Inactive
IC50 (human CYP2C19 [9]): 0.57 µM
Luciferase IC50 (half-maximal inhibitory concentration) [4]: Inactive
CYP2C9 Efficacy (in parenthesis) (human CYP2C9 [5]; human): 12.86 ± 6.41 (-84 ± 11) %
IC50 (human CYP1A2 [6]; [10]): 3.65 µM
CYP2D6 IC50 (half-maximal inhibitory concentration) (human CYP2D6 [7]): Inactive

Cimicifugoside
CYP1A2 IC50 (half-maximal inhibitory concentration) (human CYP1A2 [2]): Inactive
CYP2C19 IC50 (half-maximal inhibitory concentration) (human CYP2C19 [3]): Inactive
IC50 (CYP3A4): 0.89 µM
Luciferase IC50 (half-maximal inhibitory concentration) [4]: Inactive
IC50 (human CYP2C9 [5]): 41.1 µM
CYP2D6 IC50 (half-maximal inhibitory concentration) (human CYP2D6 [7]): Inactive

GW473178E methyl benzene sulphonic acid
CYP1A2 IC50 (half-maximal inhibitory concentration) (human CYP1A2 [2]): Inactive
IC50 (human CYP2C19 [3]): 46.9 µM
IC50 (CYP3A4): 0.8 µM
Luciferase IC50 (half-maximal inhibitory concentration) [4]: Inactive
IC50 (human CYP2C9 [5]): 5.86 µM
IC50 (human CYP2D6 [7]): 23.1 µM

Pentaerythritol allyl ether
IC50 (human CYP1A2 [2]): 23.6 µM
IC50 (human CYP2C19 [3]): 0.83 µM
IC50 (CYP3A4): 13 µM
Luciferase IC50 (half-maximal inhibitory concentration) [4]: Inactive
IC50 (human CYP2C9 [5]): 5.98 µM
CYP2D6 IC50 (half-maximal inhibitory concentration) (human CYP2D6 [7]): Inactive

Trimethylolpropane ethoxylate triacrylate
CYP1A2 Efficacy (in parenthesis) (human CYP1A2 [2]): 54.51 ± 3.69 (-43 ± 8) %
IC50 (human CYP1A2 [2]): 54.5 µM
CYP2C19 Efficacy (in parenthesis) (human CYP2C19 [3]): 20.46 ± 7.7 (-131 ± 32) %
IC50 (human CYP2C19 [3]): 20.5 µM
CYP3A4 Efficacy (in parenthesis) (CYP3A4): 0.9 ± 0.43 (-82 ± 18) %
IC50 (CYP3A4): 0.9 µM
Luciferase IC50 (half-maximal inhibitory concentration) [4]: Inactive
CYP2C9 Efficacy (in parenthesis) (human CYP2C9 [5]): 22.42 ± 6.63 (-90 ± 14) %
IC50 (human CYP2C9 [5]): 22.4 µM
CYP2D6 Efficacy (in parenthesis) (human CYP2D6 [7]): 68.92 ± 8.79 (-43 ± 5) %
IC50 (human CYP2D6 [7]): 68.9 µM
